Results published in patent publication US12686727B2, “Antibodies for binding plasmin” (MONASH UNIVERSITY, priority 2019, dated 2026).

Test system: whole blood clots
Test: Whole blood clot lysis induced by tPA
Type: cell-based, human
Settings: for inhibition of clot lysis at high concentrations: up to 1,000 nM
Method: Whole blood clots were formed from human blood collected from healthy donors. Halo-shaped clots were generated by mixing whole blood with 15% of a mixture containing recombinant tissue factor supplemented with synthetic phospholipids Dade Innovin, Siemens Germany and 67 mM CaCl2 in HBS at 1:4 ratio. The plate was sealed and incubated at 37° C. for 60 min before use.
Clot lysis was induced by the addition of tPA to 7 nM and antibodies or Plm inhibitors at the following concentrations: 0-312.5 nM B10; 0-1000 nM α2AP; 0-1000 nM aprotinin; 0-7.5 mM TXA. Clot lysis leads to an […] of turbidity and was monitored at OD610 nm using a plate reader.
The time required to achieve 50% clot lysis was used for IC50 calculation. […] B10 was more than 180-fold more efficacious than TXA (not shown).

Aprotinin [reference compound]
inhibition of clot lysis at high concentrations: only partially inhibit clot lysis

NC[C@H]1CC[C@H](C(=O)O)CC1 [TXA, tranexamic acid, reference compound]
concentration of total inhibition of clot lysis (7 nM tPA, data not shown): ≥ 300 µM
effect on clot lysis (concentration up to 100 μM): delayed clot lysis

B1: alpha-2-antiplasmin (protein)
chain: NQEQVSPLTLLKLGNQEPGGQTALKSPPGVCSRDPTPEQTHRLARAMMAFTADLFSLVAQTSTCPNLILSPLSVALALSHLALGAQNHTLQRLQQVLHAGSGPCLPHLLSRLCQDLGPGAFRLAARMYLQKGFPIKEDFLEQSEQLFGAKPVSLTGKQEDDLANINQWVKEATEGKIQEFLSGLPEDTVLLLLNAIHFQGFWRNKFDPSLTQRDSFHLDEQFTVPVEMMQARTYPLRWFLLEQPEIQVAHFPFKNNMSFVVLVPTHFEWNVSQVLANLSWDTLHPPLVWERPTKVRLPKLYLKHQMDLVATLSQLGLQELFQAPDLRGISEQSLVVSGVQHQSTLELSEVGVEAAAATSIAMSRMSLSSFSVNRPFLFFIFEDTTGLPLFVGSVRNPNPSAPRELKEQQDSPGNKDFLQSLKGFPRGDKLFGPDLKLVPPMEEDYPQFGSPK
inhibition of clot lysis at high concentrations: only partially inhibit clot lysis
